Source: ChEMBL document CHEMBL5523757, “Discovery, Synthesis, and Activity Evaluation of Novel Five-Membered Sulfur-Containing Heterocyclic Nucleosides as Potential Anticancer Agents In Vitro and In Vivo” (J Med Chem, 2024)
The source made the active and inactive calls. The calls are words filed in the database; no cut-off is given here.

How the values were obtained:
HeLa [1] = test: Induction of autophagy in human HeLa cells assessed as downregulation of PI3K phosphorylation at 2 to 8 uM incubated for 48 hrs by Western blot analysis; assay type: functional, cell-based; conditions: dose 2-8 µM
HeLa [2] = test: Induction of autophagy in human HeLa cells assessed as upregulation of Beclin-1 expression incubated for 48 hrs by immunofluorescence assay; assay type: functional, cell-based
[3] = biological target: Small ribosomal subunit protein eS6 (Homo sapiens) (UniProt P62753); test: Binding affinity to RPS6 in human HeLa cells assessed as increase in protein abundance in presence of pronase by DARTS assay; assay type: cell-based
HeLa [4] = test: Antitumor activity against human HeLa cells xenografted in BALB/c mouse assessed as reduction in tumor weight at 15 to 60 mg/kg,ip once daily for 14 days; assay type: functional, organism-based; conditions: dose 15-60 mg/kg, time 14.0 day
Cell membrane [5] = test: Induction of mitochondrial membrane potential loss in human HeLa cells assessed as decrease in red fluorescence at 2 to 8 uM incubated for 48 hrs by JC-1 staining based flow cytometry; conditions: dose 2-8 µM
[6] = biological target: Small ribosomal subunit protein eS6 (Homo sapiens) (UniProt P62753); test: Inhibition of RPS6 in human HeLa cells assessed as downregulation of RPS6 expression at 2 to 8 uM incubated for 48 hrs by Western blot analysis; assay type: cell-based; conditions: dose 2-8 µM
HeLa [7] = test: Induction of apoptosis in human HeLa cells assessed as upregulation of Bax expression incubated for 48 hrs by Western blot analysis; assay type: functional, cell-based
HeLa [8] = test: Induction of autophagy in human HeLa cells assessed as increase in number of autophagosomes incubated for 48 hrs by transmission electron microscopic analysis; assay type: functional, cell-based
HeLa [9] = test: Induction of autophagy in human HeLa cells assessed as downregulation of mTOR expression at 2 to 8 uM incubated for 48 hrs by Western blot analysis; assay type: functional, cell-based; conditions: dose 2-8 µM
HeLa [10] = test: Antitumor activity against human HeLa cells xenografted in BALB/c mouse assessed as necrotic cells in tumor at 15 to 60 mg/kg,ip once daily for 14 days; assay type: functional, organism-based; conditions: dose 15-60 mg/kg, time 14.0 day
HeLa [11] = test: Induction of endoplasmic reticulum (ER) stress in human HeLa cells assessed as increase in red fluorescence intensity at 2 to 8 uM incubated for 48 hrs by ER-tracker red dye based fluorescence microscopic analysis; assay type: functional, cell-based; conditions: dose 2-8 µM
HeLa [12] = test: Induction of autophagy in human HeLa cells with siRNA-mediated RPS6 knockdown assessed as upregulation of Beclin-1 expression at 4 uM incubated for 48 hrs by Western blot analysis; assay type: functional, cell-based
HeLa [13] = test: Induction of autophagy in human HeLa cells assessed as downregulation of mTOR phosphorylation at 2 to 8 uM incubated for 48 hrs by Western blot analysis; assay type: functional, cell-based; conditions: dose 2-8 µM
HeLa [14] = test: Induction of apoptosis in human HeLa cells assessed as upregulation of cleaved PARP expression incubated for 48 hrs by Western blot analysis; assay type: functional, cell-based
HeLa [15] = test: Induction of autophagy in human HeLa cells with siRNA-mediated RPS6 knockdown assessed as downregulation of SQSTM1/p62 expression at 4 uM incubated for 48 hrs by Western blot analysis; assay type: functional, cell-based
HeLa [16] = test: Induction of autophagy in human HeLa cells assessed as downregulation of SQSTM1/p62 expression at 2 to 8 uM incubated for 48 hrs by Western blot analysis; assay type: functional, cell-based; conditions: dose 2-8 µM
HeLa [17] = test: Induction of autophagy in human HeLa cells assessed as upregulation of Beclin-1 expression at 2 to 8 uM incubated for 48 hrs by Western blot analysis; assay type: functional, cell-based; conditions: dose 2-8 µM
HeLa [18] = test: Induction of autophagy in human HeLa cells assessed as upregulation of LC3 expression incubated for 48 hrs by immunofluorescence assay; assay type: functional, cell-based
HeLa [19] = test: Induction of autophagy in human HeLa cells assessed as downregulation of AKT expression at 2 to 8 uM incubated for 48 hrs by Western blot analysis; assay type: functional, cell-based; conditions: dose 2-8 µM
HeLa [20] = test: Inhibition of colony formation in human HeLa cells at 2 to 8 uM incubated for 2 weeks by crystal violet staining based microscopic analysis; assay type: functional, cell-based; conditions: dose 2-8 µM
HeLa [21] = test: Induction of apoptosis in human HeLa cells assessed as upregulation of p53 expression incubated for 48 hrs by Western blot analysis; assay type: functional, cell-based
HeLa [22] = test: Induction of cell cycle arrest in human HeLa cells at 2 to 8 uM; assay type: functional, cell-based; conditions: dose 2-8 µM
Cell membrane [23] = test: Disruption of mitochondrial membrane in human HeLa cells assessed as decrease in fluorescence intensity at 2 to 8 uM incubated for 48 hrs by mito-tracker green dye based fluorescence microscopic analysis; assay type: cell membranes; conditions: dose 2-8 µM
[24] = biological target: Small ribosomal subunit protein eS6 (Homo sapiens) (UniProt P62753); test: Binding affinity to RPS6 in human HeLa cells assessed as stabilization of protein at 100 uM at 70 degreeC by cellular thermal shift assay; assay type: cell-based
HeLa [25] = test: Induction of autophagy in human HeLa cells assessed as upregulation of LC3 expression at 2 to 8 uM incubated for 48 hrs by Western blot analysis; assay type: functional, cell-based; conditions: dose 2-8 µM
Cell membrane [26] = test: Induction of mitochondrial membrane potential loss in human HeLa cells assessed as increase in green fluorescence at 2 to 8 uM incubated for 48 hrs by JC-1 staining based flow cytometry; conditions: dose 2-8 µM
HeLa [27] = test: Induction of autophagy in human HeLa cells assessed as increase in number of MDC-positive cells incubated for 48 hrs by MDC staining based fluorescence microscopic analysis; assay type: functional, cell-based
[28] = biological target: Small ribosomal subunit protein eS6 (Homo sapiens) (UniProt P62753); test: Inhibition of RPS6 in human HeLa cells assessed as downregulation of RPS6 phosphorylation at 2 to 8 uM incubated for 48 hrs by Western blot analysis; assay type: cell-based; conditions: dose 2-8 µM
HeLa [29] = test: Induction of apoptosis in human HeLa cells assessed as upregulation of cleaved caspase-3 expression incubated for 48 hrs by Western blot analysis; assay type: functional, cell-based
HeLa [30] = test: Induction of autophagy in human HeLa cells assessed as downregulation of AKT phosphorylation at 2 to 8 uM incubated for 48 hrs by Western blot analysis; assay type: functional, cell-based; conditions: dose 2-8 µM
HeLa [31] = test: Induction of autophagy in human HeLa cells assessed as downregulation of PI3K expression at 2 to 8 uM incubated for 48 hrs by Western blot analysis; assay type: functional, cell-based; conditions: dose 2-8 µM
HeLa [32] = test: Inhibition of cell migration in human HeLa cells incubated for 48 hrs by scratch wound healing assay; assay type: functional, cell-based
HeLa [33] = test: Inhibition of cell invasion in human HeLa cells at 2 to 8 uM incubated for 48 hrs by crystal violet staining based transwell invasion assay; assay type: functional; conditions: dose 2-8 µM
Cell membrane [34] = test: Disruption of lysosomal membrane in human HeLa cells assessed as decrease in fluorescence intensity at 2 to 8 uM incubated for 48 hrs by lyso-tracker red dye based fluorescence microscopic analysis; assay type: cell membranes; conditions: dose 2-8 µM
HeLa [35] = test: Induction of autophagy in human HeLa cells with siRNA-mediated RPS6 knockdown assessed as upregulation of LC3 expression at 4 uM incubated for 48 hrs by Western blot analysis; assay type: functional, cell-based
HeLa [36] = test: Antitumor activity against human HeLa cells xenografted in BALB/c mouse assessed as reduction in tumor volume at 15 to 60 mg/kg,ip once daily for 14 days; assay type: functional, organism-based; conditions: dose 15-60 mg/kg, time 14.0 day

CCOC(=O)C[C@H]1CSC[C@]1(C(=O)OCC)n1cnc2c(Cl)nc(Cl)nc21 (racemic)
Activity (HeLa [1]): Active
Activity (HeLa [2]): Active
Activity [3]: Active
Activity (HeLa [4]): Active
Activity (Cell membrane [5]): Active
inhibition [6]: Active
Activity (HeLa [7]): Dose-Dependent Effect
Activity (HeLa [8]): Dose-Dependent Effect
Activity (HeLa [9]): Active
Activity (HeLa [10]): Active
Activity (HeLa [11]): Active
Activity (HeLa [12]): Active
Activity (HeLa [13]): Active
Activity (HeLa [14]): Dose-Dependent Effect
Activity (HeLa [15]): Active
Activity (HeLa [16]): Active
Activity (HeLa [17]): Active
Activity (HeLa [18]): Active
Activity (HeLa [19]): Active
inhibition (HeLa [20]): Active
Activity (HeLa [21]): Dose-Dependent Effect
Activity (HeLa [22]): inactive
Activity (Cell membrane [23]): Active
Activity [24]: Active
Activity (HeLa [25]): Active
Activity (Cell membrane [26]): Active
Activity (HeLa [27]): Dose-Dependent Effect
inhibition [28]: Active
Activity (HeLa [29]): Dose-Dependent Effect
Activity (HeLa [30]): Active
Activity (HeLa [31]): Active
inhibition (HeLa [32]): Dose-Dependent Effect
inhibition (HeLa [33]): Active
Activity (Cell membrane [34]): Active
Activity (HeLa [35]): Active
Activity (HeLa [36]): Active
